Where “and” joins values, the source holds several entries; their conditions need not be identical. Equal values may be shown once. Read-outs that look alike come from different tables or passages of the source.
Columns and labels:
[1] = CellTiter‐Glo assay (cytotoxicity); settings: human, WI-26 VA4 cells
Procedure: (§1) After 24 h, the cells were incubated with various concentrations of compounds for 48 h. The level of ATP as a measure of cell viability was determined using a CellTiter‐Glo® luminescent cell viability assay kit (Promega, G7571) following the manufacturer's instructions.
(§2) WI‐26 VA4 cells were seeded at 1.2 × 10^4 cells/well in 96‐well white plates. After 24 h, the cells were incubated with the indicated concentrations of compounds for 72 h. The viability was determined as described above.

WI‐26 VA4 cells = test: CellTiter‐Glo assay (cytotoxicity); settings: for activity at 0.0001 µM / activity at 0.0003 µM / activity at 0.001 µM / activity at 0.003 µM / activity at 0.01 µM / activity at 0.03 µM / activity at 0.1 µM / activity at 0.3 µM / activity at 1 µM / activity at 3 µM / activity at 10 µM / activity at 30 µM / activity at 100 µM: Homo sapiens
Procedure: as §1, §2

[2] = tested on: TNT Quick Coupled Transcription/Translation System (luciferase synthesis); assay type: biochemical

## Cc1c(Br)cnc2c1ncn2CC(=O)C[C@H]1NCCC[C@@H]1O [DWN11761]
[1]
  CC50 at 72 h: 294 nM
WI‐26 VA4 cells; WI26VA4, read-out: CellTiter-Glo % of control, 0.1 nM, Experiment #1, replicates
  activity at 0.0001 µM: 101%
WI‐26 VA4 cells; WI26VA4, read-out: CellTiter-Glo % of control, 0.1 nM, Experiment #2, replicates
  activity at 0.0001 µM: 95.4%
WI‐26 VA4 cells; WI26VA4, read-out: CellTiter-Glo % of control, 0.3 nM, Experiment #1, replicates
  activity at 0.0003 µM: 110%
WI‐26 VA4 cells; WI26VA4, read-out: CellTiter-Glo % of control, 0.3 nM, Experiment #2, replicates
  activity at 0.0003 µM: 103%
WI‐26 VA4 cells; WI26VA4, read-out: CellTiter-Glo % of control, 1 nM, Experiment #1, replicates
  activity at 0.001 µM: 106%
WI‐26 VA4 cells; WI26VA4, read-out: CellTiter-Glo % of control, 1 nM, Experiment #2, replicates
  activity at 0.001 µM: 93.8%
WI‐26 VA4 cells; WI26VA4, read-out: CellTiter-Glo % of control, 3 nM, Experiment #1, replicates
  activity at 0.003 µM: 100%
WI‐26 VA4 cells; WI26VA4, read-out: CellTiter-Glo % of control, 10 nM, Experiment #1, replicates
  activity at 0.01 µM: 104%
WI‐26 VA4 cells; WI26VA4, read-out: CellTiter-Glo % of control, 30 nM, Experiment #1, replicates
  activity at 0.03 µM: 94.7%
WI‐26 VA4 cells; WI26VA4, read-out: CellTiter-Glo % of control, 100 nM, Experiment #1, replicates
  activity at 0.1 µM: 72.9%
WI‐26 VA4 cells; WI26VA4, read-out: CellTiter-Glo % of control, 300 nM, Experiment #1, replicates
  activity at 0.3 µM: 56.9%
WI‐26 VA4 cells; WI26VA4, read-out: CellTiter-Glo % of control, 1000 nM, Experiment #1, replicates
  activity at 1 µM: 24.9%
WI‐26 VA4 cells; WI26VA4, read-out: CellTiter-Glo % of control, 1000 nM, Experiment #2, replicates
  activity at 1 µM: 12.4%
WI‐26 VA4 cells; WI26VA4, read-out: CellTiter-Glo % of control, 3000 nM, Experiment #1, replicates
  activity at 3 µM: 39.6%
WI‐26 VA4 cells; WI26VA4, read-out: CellTiter-Glo % of control, 3000 nM, Experiment #2, replicates
  activity at 3 µM: 30.3%
WI‐26 VA4 cells; WI26VA4, read-out: CellTiter-Glo % of control, 10000 nM, Experiment #1, replicates
  activity at 10 µM: 14.4%
WI‐26 VA4 cells; WI26VA4, read-out: CellTiter-Glo % of control, 10000 nM, Experiment #2, replicates
  activity at 10 µM: 8.9%
WI‐26 VA4 cells; WI26VA4, read-out: CellTiter-Glo % of control, 30000 nM, Experiment #1, replicates
  activity at 30 µM: 6.42%
WI‐26 VA4 cells; WI26VA4, read-out: CellTiter-Glo % of control, 30000 nM, Experiment #2, replicates
  activity at 30 µM: 4.58%
WI‐26 VA4 cells; WI26VA4, read-out: CellTiter-Glo % of control, 100000 nM, Experiment #1, replicates
  activity at 100 µM: 2.45%
WI‐26 VA4 cells; WI26VA4, read-out: CellTiter-Glo % of control, 100000 nM, Experiment #2, replicates
  activity at 100 µM: 1.52%
WI‐26 VA4 cells; WI26VA4, read-out: CellTiter-Glo % of control, average, 0.1 nM, average
  activity at 0.0001 µM: 102%
WI‐26 VA4 cells; WI26VA4, read-out: CellTiter-Glo % of control, average, 0.3 nM, average
  activity at 0.0003 µM: 105%
WI‐26 VA4 cells; WI26VA4, read-out: CellTiter-Glo % of control, average, 1 nM, average
  activity at 0.001 µM: 96.9%
WI‐26 VA4 cells; WI26VA4, read-out: CellTiter-Glo % of control, average, 3 nM, average
  activity at 0.003 µM: 82.5%
WI‐26 VA4 cells; WI26VA4, read-out: CellTiter-Glo % of control, average, 10 nM, average
  activity at 0.01 µM: 91.2%
WI‐26 VA4 cells; WI26VA4, read-out: CellTiter-Glo % of control, average, 30 nM, average
  activity at 0.03 µM: 86.4%
WI‐26 VA4 cells; WI26VA4, read-out: CellTiter-Glo % of control, average, 100 nM, average
  activity at 0.1 µM: 66.3%
WI‐26 VA4 cells; WI26VA4, read-out: CellTiter-Glo % of control, average, 300 nM, average
  activity at 0.3 µM: 51.8%
WI‐26 VA4 cells; WI26VA4, read-out: CellTiter-Glo % of control, average, 1000 nM, average
  activity at 1 µM: 20.8%
WI‐26 VA4 cells; WI26VA4, read-out: CellTiter-Glo % of control, average, 3000 nM, average
  activity at 3 µM: 32.6%
WI‐26 VA4 cells; WI26VA4, read-out: CellTiter-Glo % of control, average, 10000 nM, average
  activity at 10 µM: 11.2%
WI‐26 VA4 cells; WI26VA4, read-out: CellTiter-Glo % of control, average, 30000 nM, average
  activity at 30 µM: 5.72%
WI‐26 VA4 cells; WI26VA4, read-out: CellTiter-Glo % of control, average, 100000 nM, average
  activity at 100 µM: 1.91%
WI‐26 VA4 cells; log(inhibitor) vs. response, variable slope (four parameters), concentration in nM
  CellTiter-Glo LogIC50 (best-fit value): 2.468
[2]; 6 nM, Experiment #1, replicates, 0.006 µM
  TNT-luciferase % of control: 103.28 % of control and 100.82 % of control and 110.66 % of control
[2]; 6 nM, Experiment #2, replicates, 0.006 µM
  TNT-luciferase % of control: 86.60 % of control and 91.24 % of control and 93.56 % of control
[2]; 6 nM, Experiment #3, replicates, 0.006 µM
  TNT-luciferase % of control: 100.46 % of control and 97.13 % of control and 93.79 % of control
[2]; 6 nM
  TNT-luciferase % of control, average: 97.50 % of control
[2]; 20 nM, Experiment #1, replicates, 0.02 µM
  TNT-luciferase % of control: 108.20 % of control and 109.84 % of control (2×)
[2]; 20 nM, Experiment #2, replicates, 0.02 µM
  TNT-luciferase % of control: 85.82 % of control and 94.33 % of control and 98.20 % of control
[2]; 20 nM, Experiment #3, replicates, 0.02 µM
  TNT-luciferase % of control: 98.25 % of control and 93.99 % of control and 91.88 % of control
[2]; 20 nM
  TNT-luciferase % of control, average: 98.93 % of control
[2]; 60 nM, Experiment #1, replicates, 0.06 µM
  TNT-luciferase % of control: 130.33 % of control and 132.79 % of control and 131.97 % of control
[2]; 60 nM, Experiment #2, replicates, 0.06 µM
  TNT-luciferase % of control: 90.46 % of control and 98.97 % of control and 95.10 % of control
[2]; 60 nM, Experiment #3, replicates, 0.06 µM
  TNT-luciferase % of control: 100.65 % of control and 91.36 % of control and 86.32 % of control
[2]; 60 nM
  TNT-luciferase % of control, average: 106.44 % of control
[2]; 200 nM, Experiment #1, replicates, 0.2 µM
  TNT-luciferase % of control: 106.56 % of control and 109.84 % of control and 110.66 % of control
[2]; 200 nM, Experiment #2, replicates, 0.2 µM
  TNT-luciferase % of control: 68.51 % of control and 71.29 % of control and 70.98 % of control
[2]; 200 nM, Experiment #3, replicates, 0.2 µM
  TNT-luciferase % of control: 96.73 % of control and 90.18 % of control and 101.79 % of control
[2]; 200 nM
  TNT-luciferase % of control, average: 91.84 % of control
[2]; 600 nM, Experiment #1, replicates, 0.6 µM
  TNT-luciferase % of control: 44.18 % of control and 45.33 % of control and 50.74 % of control
[2]; 600 nM, Experiment #2, replicates, 0.6 µM
  TNT-luciferase % of control: 46.24 % of control and 47.63 % of control and 53.81 % of control
[2]; 600 nM, Experiment #3, replicates, 0.6 µM
  TNT-luciferase % of control: 54.77 % of control and 51.07 % of control and 57.11 % of control
[2]; 600 nM
  TNT-luciferase % of control, average: 50.10 % of control
[2]; 2000 nM, Experiment #1, replicates, 2 µM
  TNT-luciferase % of control: 2.25 % of control and 2.32 % of control and 2.42 % of control
[2]; 2000 nM, Experiment #2, replicates, 2 µM
  TNT-luciferase % of control: 3.17 % of control and 3.09 % of control and 3.97 % of control
[2]; 2000 nM, Experiment #3, replicates, 2 µM
  TNT-luciferase % of control: 3.31 % of control and 3.19 % of control and 3.30 % of control
[2]; 2000 nM
  TNT-luciferase % of control, average: 3.00 % of control

From article PMC10331583, “Control of fibrosis with enhanced safety via asymmetric inhibition of prolyl‐tRNA synthetase 1” (EMBO Molecular Medicine, 2023)
